In PMC8398878, “Synthesis, Physicochemical Characterization, In Vitro 2D/3D Human Cell Culture, and In Vitro Aerosol Dispersion Performance of Advanced Spray Dried and Co-Spray Dried Angiotensin (1—7) Peptide and PNA5 with Trehalose as Microparticles/Nanoparticles for Targeted Respiratory Delivery as Dry Powder …” (Pharmaceutics, 2021):
≈ marks a conversion by molar mass, not a printed value. Read-outs that look alike come from different tables or passages of the source. Peptide text beside a SMILES is read from it. * marks the point of attachment. βGlc = OC[C@H]1O[C@@H](*)[C@H](O)[C@@H](O)[C@@H]1O

Columns and labels:
[1] = tested on: H441 lung epithelial cells; experiment: In vitro 2D cell viability, resazurin assay; settings: for safe (non-toxic) concentration: epithelium lung cells (H441)
Protocol: (§1) In vitro human cell viability assays were performed to measure the biocompatibility and safety of Ang (1—7) and PNA5 on nasal epithelium RPMI 2650 cells, hCMEC/D3 blood–brain barrier endothelial cells, NHA, A549, and H441 lung cells using resazurin as a marker.
(§2) A549 adenocarcinoma human alveolar basal epithelial cells (ATCC® CCL-185™) and H441 lung adenocarcinoma cells (ATCC®HTB174™) were used at passages 9 and 8, respectively, for the experiments. Both cell types were grown in a growth in RPMI Medium 1640 (1X) (Gibco, 11875-093, 500 mL) supplemented with 10% v/v fetal bovine serum (FBS), 0.2% v/v fungizone (0.5 μg/mL amphotericin), 1% v/v Pen-Strep (100 Unit/mL penicillin, 100 μg/mL streptomycin). The cells were kept in a humidified incubator at 37 °C and 5% CO2.
(§3) For passage, all the cell types were detached when confluence reached about 80% by treating the cells with trypsin-EDTA at 37 °C. The effects of Ang (1—7) and PNA5 on cell proliferation were analyzed by measuring all of the above cell line responses to different concentrations of Ang (1—7) and PNA5 separately. The cells were seeded in 96-well black plates at a specific density and were kept to attach for 48 h. Then, the media containing compounds were removed from each well and replaced by 100 μL of media containing 20 μM resazurin sodium salt (was dissolved in un-supplemental media) and incubated for 4 h at 37 °C and 5% CO2. The fluorescence intensity of the metabolite (resorufin) produced by the viable cells was measured at 544 nm (the excitation) and 590 nm (the emission) using the Synergy H1 Multi-Mode Reader (BioTek Instruments Inc., Winooski, VT, USA). The relative cell viability of the cell line was calculated using Equation (6):(6) Relative viability %=Sample fluorescence intensity/Control fluorescence intensity×100%

[2] = Solubility by shake-flask method (SFM) with HPLC; assay type: physicochemical
Protocol: The solubilities of Ang (1—7) and PNA5 were determined by the SFM using conditions similar to previously reported by our group and in [39, 40, 41, 42]. Each compound’s excess powder was added to a specific volume of different solvents (purified water, phosphate buffered saline (PBS), normal saline (NS), methanol, and ethanol) in closed, light-protected glass vials. The solutions containing excess solid of Ang (1—7) and PNA5 were then capped and agitated at room temperature (25 °C) using a shaker. More powder was added to the vial if the dissolution was complete. The pH value of Ang (1—7) and PNA5 suspensions were adjusted to pH 6.5 (pseudo-isoelectric point calculated by MOE software) to determine the zwitterionic species’ solubilities and ensure the predominant presence of the unionized form of Ang (1—7) and PNA5. The separation of the saturated solution and the precipitate was performed by sedimentation. Aliquots of supernatants were withdrawn from all saturated solutions, diluted with each corresponding solvent, and injected into analytical HPLC. Each compound in each aliquot was measured against a calibration curve using the previously developed analytical HPLC method in our lab. Each compound’s solubility experiments in all solvents were repeated three times (n = 3, mean ± standard deviation).
The HPLC system is LC-2010HT next-generation HPLC (SHIMADZU Tokyo, Japan), and it is the same as previously used in [24]. This system consists of a degassing unit, low-pressure gradient unit, pump unit, mixer, ultra-fast autosampler, column oven, and a UV-VIS detector with a thermostatted flow cell system. The analysis was performed by a reverse phase HPLC assay, using Phenomenex Prodigy 5 um ODS (3) 250 × 4.6 mm HPLC Column. Ultraviolet detection was done at 280 nm. Mobile phase condition was a gradient of acetonitrile in water with 0.1% trifluoroacetic acid at two different percentages pumped from two pumps. The flow was 1 mL/min, the injection volume was 20 μL; the retention time for Ang (1—7) was ~7.7 min and for PNA5 was ~6.7 min. Quantification for both compounds was determined using peak area and calculated from freshly prepared standard curves.

[3] = tested on: Normal Human Astrocytes (NHA); experiment: In vitro 2D cell viability, resazurin assay; settings: for safe (non-toxic) concentration: astrocyte brain cells (NHA)
Protocol: as §1
(§4) Human nasal epithelial cells (RPMI 2650) with passage numbers between 9 and 13 were used for the experiments. Eagle’s Minimum Essential Medium (EMEM) (ATCC® 30-2003™) supplemented with 10% (v/v) fetal bovine serum (FBS), 1% (v/v) Pen-Strep (100 Unit/mL penicillin, 100 μg/mL streptomycin), 0.2% (v/v) and fungizone (0.5 μg/mL amphotericin) was used to grow cells in a humidified incubator at 37 °C and 5% CO2. Normal Human Astrocytes (NHA) at passages 1 and 3 were used for the experiments. A supplements kit for a complete growth medium AGM™ SingleQuots™ (Lonza, CC-4123) was added to the growth medium of Astrocyte basal medium ABM™ (Lonza, CC-3187).
as §3

[4] = tested on: hCMEC/D3 blood–brain barrier endothelial cells; experiment: In vitro 2D cell viability, resazurin assay; settings: for safe (non-toxic) concentration: endothelial brain cells (hCMEC/D3)
Protocol: as §1
The immortalized human cerebral microvascular endothelial (hCMEC/D3) at passages 29 and 31 were seeded on collagen-coated culture flasks. Cells were grown in EndoGRO™-MV Complete Media Kit (cat. no. SCME004) supplemented with one ng/mL FGF-2 (cat. no. GF003) and kept in a humidified incubator at 37 °C and 5% CO2.
as §3

[5] = tested on: A549 lung epithelial cells; experiment: In vitro 2D cell viability, resazurin assay; settings: for safe (non-toxic) concentration: epithelium lung cells (A549)
Protocol: as §1, §2, §3

[6] = tested on: RPMI 2650 nasal epithelium cells; experiment: In vitro 2D cell viability, resazurin assay; settings: for safe (non-toxic) concentration: nasal epithelium cells (RPMI2650)
Protocol: as §1, §4, §3

[7] = Karl Fisher coulometric titration, residual water content; assay type: physicochemical; settings: n = 3
Protocol: All powders’ residual water content was quantified by KFT coulometrically using conditions similar to previously reported. A TitroLine® 7500 trace titrator (SI Analytics, Mainz, Germany) was used. A mass of 1–2 mg of powder sample was dissolved in 0.5 mL AQUA STAR anhydrous methanol and injected the sample solution into a reaction cell filled with Hydranal® Coulomat AD reagent. Then obtain the water content of the sample a simple calculation. All experiments were done in triplicate (n = 3).

## CC[C@H](C)[C@H](NC(=O)[C@H](Cc1ccc(O)cc1)NC(=O)[C@@H](NC(=O)[C@H](CCCNC(=N)N)NC(=O)[C@@H](N)CC(=O)O)C(C)C)C(=O)N[C@@H](Cc1c[nH]cn1)C(=O)N1CCC[C@H]1C(=O)O [Ang (1—7), Asp-Arg-Val-Tyr-Ile-His-Pro]
[1]
  safe (non-toxic) concentration: up to 1000 μg/mL
[2]; Ethanol
  Solubility Category According to USP Definition: Very slightly soluble (VSS)
[2]; Ethanol, 25 °C, n = 3, read-out: Solubility
  solubility: 0.16 ± 0.001 mg/mL
[2]; Ethanol, footnote: S in mMole unit, read-out: LogS (experimental) (converted)
  solubility: 0.178 mM
[2]; H2O, footnote: S in mMole unit, read-out: LogS (experimental) (converted)
  solubility: 195 mM
[2]; H2O, read-out: Solubility Category According to USP Definition
  solubility: 100 to 1000 mg/mL
[2]; Methanol
  Solubility Category According to USP Definition: Slightly soluble (SS)
[2]; Methanol, 25 °C, n = 3, read-out: Solubility
  solubility: 1 ± 0.005 mg/mL
[2]; Methanol, footnote: S in mMole unit, read-out: LogS (experimental) (converted)
  solubility: 1.12 mM
[2]; NS, footnote: S in mMole unit, read-out: LogS (experimental) (converted)
  solubility: 155 mM
[2]; NS, read-out: Solubility Category According to USP Definition
  solubility: 100 to 1000 mg/mL
[2]; PBS
  Solubility Category According to USP Definition: Freely Soluble (FS)
[2]; PBS, footnote: S in mMole unit, read-out: LogS (experimental) (converted)
  solubility: 186 mM
[2]; pH 6.5, H2O, pH 6.5, 25 °C, n = 3, read-out: Solubility
  solubility: 174 ± 0.19 mg/mL
[2]; pH 6.5, NS (normal saline), pH 6.5, 25 °C, n = 3, read-out: Solubility
  solubility: 140.4 ± 0.32 mg/mL
[2]; pH 6.5, PBS, pH 6.5, 25 °C, n = 3, read-out: Solubility
  solubility: 165.4 ± 0.34 mg/mL
[3]
  safe (non-toxic) concentration: up to 1000 μg/mL
[4]
  safe (non-toxic) concentration: up to 1000 μg/mL
[5]
  safe (non-toxic) concentration: up to 1000 μg/mL
[6]
  safe (non-toxic) concentration: up to 1000 μg/mL

## CC[C@H](C)[C@H](NC(=O)[C@H](Cc1ccc(O)cc1)NC(=O)[C@@H](NC(=O)[C@H](CCCNC(=N)N)NC(=O)[C@@H](N)CC(=O)O)C(C)C)C(=O)N[C@@H](Cc1c[nH]cn1)C(=O)N[C@@H](CO[C@@H]1O[C@H](CO)[C@@H](O)[C@H](O)[C@H]1O)C(N)=O [PNA5, Asp-Arg-Val-Tyr-Ile-His-Ser-(O-β-D-Glc)-amide] (H-DRVYIHS(βGlc)-NH2)
[1]; H441, 0.1, 1, 10 and 1000 µg/mL, p > 0.05, n = 6
  relative cell viability% vs control cells: no statistically significant difference
[1]
  safe (non-toxic) concentration: up to 1000 μg/mL
[2]; Ethanol
  Solubility Category According to USP Definition: Very slightly soluble (VSS)
[2]; Methanol
  Solubility Category According to USP Definition: Very slightly soluble (VSS)
[2]; NS (normal saline), pH 6.5, 25 °C, n = 3
  solubility thermodynamic: 269.3 ± 1.53 mg/mL (≈ 256 mM)
[2]; ethanol, 25 °C, n = 3, read-out: Solubility
  solubility: 0.12 ± 0.003 mg/mL
[2]; ethanol, footnote: S in mMole unit, read-out: LogS (experimental) (converted)
  solubility: 0.115 mM
[2]; methanol, 25 °C, n = 3, read-out: Solubility
  solubility: 0.34 ± 0.01 mg/mL
[2]; methanol, footnote: S in mMole unit, read-out: LogS (experimental) (converted)
  solubility: 0.331 mM
[2]; normal saline (NS), pH 6.5, NS, footnote: S in mMole unit, read-out: LogS (experimental) (converted)
  solubility: 257 mM
[2]; normal saline (NS), pH 6.5, NS, read-out: Solubility Category According to USP Definition
  solubility: 100 to 1000 mg/mL
[2]; phosphate buffered saline (PBS), pH 6.5, PBS, footnote: S in mMole unit, read-out: LogS (experimental) (converted)
  solubility: 288 mM
[2]; phosphate buffered saline (PBS), pH 6.5, PBS, read-out: Solubility Category According to USP Definition
  solubility: 100 to 1000 mg/mL
[2]; phosphate buffered saline (PBS), PBS, pH 6.5, 25 °C, n = 3
  solubility thermodynamic: 305.05 ± 0.22 mg/mL (≈ 290 mM)
[2]; purified water, pH 6.5, H2O, footnote: S in mMole unit, read-out: LogS (experimental) (converted)
  solubility: 263 mM
[2]; purified water, pH 6.5, H2O, read-out: Solubility Category According to USP Definition
  solubility: 100 to 1000 mg/mL
[2]; purified water, H2O, pH 6.5, 25 °C, n = 3
  solubility thermodynamic: 275.3 ± 2.31 mg/mL (≈ 262 mM)
[3]; NHA, 0.1, 1, 10 and 1000 µg/mL, p > 0.05, n = 6
  relative cell viability% vs control cells: no statistically significant difference
[3]
  safe (non-toxic) concentration: up to 1000 μg/mL
[4]
  safe (non-toxic) concentration: up to 1000 μg/mL
[4]; hCMEC/D3, 0.1, 1, 10 and 1000 µg/mL, p > 0.05, n = 6
  relative cell viability% vs control cells: no statistically significant difference
[5]; A549, 0.1, 1, 10 and 1000 µg/mL, p > 0.05, n = 6
  relative cell viability% vs control cells: no statistically significant difference
[5]
  safe (non-toxic) concentration: up to 1000 μg/mL
[6]; RPMI2650, 0.1, 1, 10 and 1000 µg/mL, p > 0.05, n = 6
  relative cell viability% vs control cells: no statistically significant difference
[6]
  safe (non-toxic) concentration: up to 1000 μg/mL

## OC[C@H]1O[C@H](O[C@H]2O[C@H](CO)[C@@H](O)[C@H](O)[C@H]2O)[C@H](O)[C@@H](O)[C@@H]1O [Raw Trehalose, D (+)-Trehalose dihydrate]
[7]
  Water % (w/w): 8.55 ± 1.50 % (w/w)
